Test results taken from ChEMBL document CHEMBL3044826, “Design, synthesis and biological evaluation of some novel substituted 2-mercapto-3-phenethylquinazolines as antitumor agents” (2013).

Legend:
Type in all cases: functional
[1] = Cytotoxicity against Homo sapiens (human) NCI-ADR-RES cells assessed as growth inhibition at 10 uM after 48 hr by coulter counter analysis; details: read-out: GI
BT-549 = experiment: Cytotoxicity against Homo sapiens (human) BT549 cells assessed as growth inhibition at 10 uM after 48 hr by coulter counter analysis; details: BT-549, 48 h, read-out: GI
HCC 2998 = experiment: Cytotoxicity against Homo sapiens (human) HCC2998 cells assessed as growth inhibition at 10 uM after 48 hr by coulter counter analysis; details: HCC 2998, 48 h, read-out: GI
SF-268 = experiment: Cytotoxicity against Homo sapiens (human) SF268 cells assessed as growth inhibition at 10 uM after 48 hr by coulter counter analysis; details: SF-268, 48 h, read-out: GI
SK-MEL-5 = experiment: Cytotoxicity against Homo sapiens (human) SK-MEL-5 cells assessed as growth inhibition at 10 uM after 48 hr by coulter counter analysis; details: SK-MEL-5, 48 h, read-out: GI
U-251 = experiment: Cytotoxicity against Homo sapiens (human) U251 cells assessed as growth inhibition at 10 uM after 48 hr by coulter counter analysis; details: U-251, 48 h, read-out: GI
MDA-MB-435 = experiment: Cytotoxicity against Homo sapiens (human) MDA-MB-435 cells assessed as growth inhibition at 10 uM after 48 hr by coulter counter analysis; details: MDA-MB-435, 48 h, read-out: GI
OVCAR-5 = experiment: Cytotoxicity against Homo sapiens (human) OVCAR5 cells assessed as growth inhibition at 10 uM after 48 hr by coulter counter analysis; details: OVCAR-5, 48 h, read-out: GI
UACC-62 = experiment: Cytotoxicity against Homo sapiens (human) UACC62 cells assessed as growth inhibition at 10 uM after 48 hr by coulter counter analysis; details: UACC-62, 48 h, read-out: GI
HOP-62 = experiment: Cytotoxicity against Homo sapiens (human) HOP62 cells assessed as growth inhibition at 10 uM after 48 hr by coulter counter analysis; details: HOP-62, 48 h, read-out: GI
OVCAR-8 = experiment: Cytotoxicity against Homo sapiens (human) OVCAR8 cells assessed as growth inhibition at 10 uM after 48 hr by coulter counter analysis; details: OVCAR-8, 48 h, read-out: GI
HCT-15 = experiment: Cytotoxicity against Homo sapiens (human) HCT15 cells assessed as growth inhibition at 10 uM after 48 hr by coulter counter analysis; details: HCT-15, 48 h, read-out: GI
HT-29 = experiment: Cytotoxicity against Homo sapiens (human) HT-29 cells assessed as growth inhibition at 10 uM after 48 hr by coulter counter analysis; details: HT-29, 48 h, read-out: GI
ACHN = experiment: Cytotoxicity against Homo sapiens (human) ACHN cells assessed as growth inhibition at 10 uM after 48 hr by coulter counter analysis; details: read-out: GI
A498 = experiment: Cytotoxicity against Homo sapiens (human) A498 cells assessed as growth inhibition at 10 uM after 48 hr by coulter counter analysis; details: A498, 48 h, read-out: GI
MDA-MB-231 = experiment: Cytotoxicity against Homo sapiens (human) MDA-MB-231 cells assessed as growth inhibition at 10 uM after 48 hr by coulter counter analysis; details: MDA-MB-231, 48 h, read-out: GI
Malme-3M = experiment: Cytotoxicity against Homo sapiens (human) MALME-3M cells assessed as growth inhibition at 10 uM after 48 hr by coulter counter analysis; details: read-out: GI
EKVX = experiment: Cytotoxicity against Homo sapiens (human) EKVX cells assessed as growth inhibition at 10 uM after 48 hr by coulter counter analysis; details: read-out: GI
KM12 = experiment: Cytotoxicity against Homo sapiens (human) KM12 cells assessed as growth inhibition at 10 uM after 48 hr by coulter counter analysis; details: KM12, 48 h, read-out: GI
SN12C = experiment: Cytotoxicity against Homo sapiens (human) SN12C cells assessed as growth inhibition at 10 uM after 48 hr by coulter counter analysis; details: read-out: GI
PC-3 = experiment: Cytotoxicity against Homo sapiens (human) PC3 cells assessed as growth inhibition at 10 uM after 48 hr by coulter counter analysis; details: PC-3, 48 h, read-out: GI
OVCAR-4 = experiment: Cytotoxicity against Homo sapiens (human) OVCAR4 cells assessed as growth inhibition at 10 uM after 48 hr by coulter counter analysis; details: OVCAR-4, 48 h, read-out: GI
NCI-H322M = experiment: Cytotoxicity against Homo sapiens (human) NCI-H322M cells assessed as growth inhibition at 10 uM after 48 hr by coulter counter analysis; details: read-out: GI
SNB-19 = experiment: Cytotoxicity against Homo sapiens (human) SNB19 cells assessed as growth inhibition at 10 uM after 48 hr by coulter counter analysis; details: SNB-19, 48 h, read-out: GI
TK-10 = experiment: Cytotoxicity against Homo sapiens (human) TK10 cells assessed as growth inhibition at 10 uM after 48 hr by coulter counter analysis; details: TK-10, 48 h, read-out: GI
RXF 393 = experiment: Cytotoxicity against Homo sapiens (human) RXF393 cells assessed as growth inhibition at 10 uM after 48 hr by coulter counter analysis; details: RXF 393, 48 h, read-out: GI
MDA-MB-468 = experiment: Cytotoxicity against Homo sapiens (human) MDA-MB-468 cells assessed as growth inhibition at 10 uM after 48 hr by coulter counter analysis; details: MDA-MB-468, 48 h, read-out: GI
COLO 205 = experiment: Cytotoxicity against Homo sapiens (human) COLO205 cells assessed as growth inhibition at 10 uM after 48 hr by coulter counter analysis; details: COLO 205, 48 h, read-out: GI
SW-620 = experiment: Cytotoxicity against Homo sapiens (human) SW620 cells assessed as growth inhibition at 10 uM after 48 hr by coulter counter analysis; details: SW-620, 48 h, read-out: GI
MCF7 = experiment: Cytotoxicity against Homo sapiens (human) MCF7 cells assessed as growth inhibition at 10 uM after 48 hr by coulter counter analysis; details: MCF7, 48 h, read-out: GI
SNB-75 = experiment: Cytotoxicity against Homo sapiens (human) SNB75 cells assessed as growth inhibition at 10 uM after 48 hr by coulter counter analysis; details: SNB-75, 48 h, read-out: GI
UO-31 = experiment: Cytotoxicity against Homo sapiens (human) UO31 cells assessed as growth inhibition at 10 uM after 48 hr by coulter counter analysis; details: UO-31, 48 h, read-out: GI
SK-MEL-28 = experiment: Cytotoxicity against Homo sapiens (human) SK-MEL-28 cells assessed as growth inhibition at 10 uM after 48 hr by coulter counter analysis; details: SK-MEL-28, 48 h, read-out: GI
A549 = experiment: Cytotoxicity against Homo sapiens (human) A549 cells assessed as growth inhibition at 10 uM after 48 hr by coulter counter analysis; details: A549, 48 h, read-out: GI

## O=c1c2ccccc2nc(SCc2ccc([N+](=O)[O-])cc2)n1CCc1ccccc1
[1]
  inhibition of growth at 10 µM: 12%
BT-549
  inhibition of growth at 10 µM: < 10%
HCC 2998
  inhibition of growth at 10 µM: < 10%
SF-268
  inhibition of growth at 10 µM: < 10%
SK-MEL-5
  inhibition of growth at 10 µM: < 10%
U-251
  inhibition of growth at 10 µM: < 10%
MDA-MB-435
  inhibition of growth at 10 µM: < 10%
OVCAR-5
  inhibition of growth at 10 µM: < 10%
UACC-62
  inhibition of growth at 10 µM: 22%
HOP-62
  inhibition of growth at 10 µM: < 10%
OVCAR-8
  inhibition of growth at 10 µM: < 10%
HCT-15
  inhibition of growth at 10 µM: < 10%
HT-29
  inhibition of growth at 10 µM: 15%
ACHN
  inhibition of growth at 10 µM: < 10%
A498
  inhibition of growth at 10 µM: < 10%
MDA-MB-231
  inhibition of growth at 10 µM: 19%
Malme-3M
  inhibition of growth at 10 µM: < 10%
EKVX
  inhibition of growth at 10 µM: 19%
KM12
  inhibition of growth at 10 µM: < 10%
SN12C
  inhibition of growth at 10 µM: < 10%
PC-3
  inhibition of growth at 10 µM: < 10%
OVCAR-4
  inhibition of growth at 10 µM: < 10%
NCI-H322M
  inhibition of growth at 10 µM: < 10%
SNB-19
  inhibition of growth at 10 µM: < 10%
TK-10
  inhibition of growth at 10 µM: < 10%
RXF 393
  inhibition of growth at 10 µM: < 10%
MDA-MB-468
  inhibition of growth at 10 µM: 3%
COLO 205
  inhibition of growth at 10 µM: < 10%
SW-620
  inhibition of growth at 10 µM: < 10%
MCF7
  inhibition of growth at 10 µM: < 10%
SNB-75
  inhibition of growth at 10 µM: < 10%
UO-31
  inhibition of growth at 10 µM: < 10%
SK-MEL-28
  inhibition of growth at 10 µM: < 10%
A549
  inhibition of growth at 10 µM: 16%
